Legend:
[1] = target: T1, EmbB2-AcpM2 complex (Msm EmbB) (Mycolicibacterium smegmatis, UniProt A0R614); test: cryo-EM structure of the complex, […] Å; mass spectrometry of co-purified lipid; assay type: binding; settings: endogenous donor substrate, bound in one protomer of the asymmetric active state
T1 construct: gene MSMEG_6389; full-length EmbB, C-terminal 10xHis tag, pMV261 vector, homologous overexpression in M. smegmatis, detergent purified then amphipol exchanged; homodimer with endogenous co-purified AcpM on each protomer; with Meromycolate extension acyl carrier protein
T1 sequence (A0R614 1-1082): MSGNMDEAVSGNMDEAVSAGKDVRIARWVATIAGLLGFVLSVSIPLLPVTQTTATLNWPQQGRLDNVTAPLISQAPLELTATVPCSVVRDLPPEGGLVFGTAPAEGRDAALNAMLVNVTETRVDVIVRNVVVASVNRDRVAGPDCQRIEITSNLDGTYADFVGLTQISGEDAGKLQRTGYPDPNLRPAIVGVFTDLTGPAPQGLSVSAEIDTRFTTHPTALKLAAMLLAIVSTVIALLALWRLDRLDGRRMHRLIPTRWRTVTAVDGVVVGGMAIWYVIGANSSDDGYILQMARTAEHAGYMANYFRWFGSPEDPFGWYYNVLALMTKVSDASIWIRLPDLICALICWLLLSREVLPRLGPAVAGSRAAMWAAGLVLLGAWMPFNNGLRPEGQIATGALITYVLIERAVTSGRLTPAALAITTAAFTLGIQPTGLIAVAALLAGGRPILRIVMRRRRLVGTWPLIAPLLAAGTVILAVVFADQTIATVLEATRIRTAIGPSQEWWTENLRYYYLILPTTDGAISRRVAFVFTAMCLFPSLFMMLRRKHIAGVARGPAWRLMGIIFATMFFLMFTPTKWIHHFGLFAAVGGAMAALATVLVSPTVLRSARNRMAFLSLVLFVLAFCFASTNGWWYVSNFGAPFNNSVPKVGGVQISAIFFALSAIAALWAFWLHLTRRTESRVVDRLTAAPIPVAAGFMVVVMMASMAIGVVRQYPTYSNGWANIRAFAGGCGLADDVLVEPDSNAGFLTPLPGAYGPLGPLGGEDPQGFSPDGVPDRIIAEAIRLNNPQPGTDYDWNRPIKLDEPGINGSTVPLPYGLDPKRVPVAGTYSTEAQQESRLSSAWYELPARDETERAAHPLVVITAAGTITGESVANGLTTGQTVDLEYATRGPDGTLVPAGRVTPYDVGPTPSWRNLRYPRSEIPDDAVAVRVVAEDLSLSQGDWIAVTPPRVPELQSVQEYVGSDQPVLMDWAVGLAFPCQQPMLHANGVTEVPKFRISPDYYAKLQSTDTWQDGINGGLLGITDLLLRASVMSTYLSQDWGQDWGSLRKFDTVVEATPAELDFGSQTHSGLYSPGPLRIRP
T1 sequence (A0R0B3 1-99 partner): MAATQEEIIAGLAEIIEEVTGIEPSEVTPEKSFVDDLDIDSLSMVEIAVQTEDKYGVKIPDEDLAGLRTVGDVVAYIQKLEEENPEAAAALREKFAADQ

[2] = target: T1, EmbB2-AcpM2 complex (Msm EmbB); test: microscale thermophoresis (MST); assay type: binding
[3] = target: the molecule itself; test: cryo-EM structure; detergent purified, amphipol exchanged EmbB with co-purified endogenous AcpM; single-particle analysis; two 3D classes refined: symmetric resting state (3.6 A) and asymmetric DPA-bound active state (3.5 A)

**Q.** How did the “cryo-EM structure of the complex, 3.5 Å; mass spectrometry of co-purified lipid” value [1] turn out when `CC(C)=CCC/C(C)=C/CC/C(C)=C\CC/C(C)=C\CC/C(C)=C\CC/C(C)=C\CC/C(C)=C\CC/C(C)=C\CC/C(C)=C\CC/C(C)=C\COP(=O)(O)O[C@@H]1O[C@H](CO)[C@@H](O)[C@@H]1O` [decaprenyl-phosphate-arabinose] was run?
**A.** Its value is “The whole of the DPA fits into this part of the map”.

**Q.** How did the Kd [2] turn out when `CC[C@@H](CO)NCCN[C@@H](CC)CO` [ethambutol] was run?
**A.** Its Kd is 1580 nM.

B1: Mycobacterium smegmatis arabinosyltransferase EmbB (MSMEG_6389) (enzyme, UniProt Q50395 1-1082, looked up)
chain: MSGNMDEAVSGNMDEAVSAGKDVRIARWVATIAGLLGFVLSVSIPLLPVTQTTATLNWPQQGRLDNVTAPLISQAPLELTATVPCSVVRDLPPEGGLVFGTAPAEGRDAALNAMLVNVTETRVDVIVRNVVVASVNRDRVAGPDCQRIEITSNLDGTYADFVGLTQISGEDAGKLQRTGYPDPNLRPAIVGVFTDLTGPAPQGLSVSAEIDTRFTTHPTALKLAAMLLAIVSTVIALLALWRLDRLDGRRMHRLIPTRWRTVTAVDGVVVGGMAIWYVIGANSSDDGYILQMARTAEHAGYMANYFRWFGSPEDPFGWYYNVLALMTKVSDASIWIRLPDLICALICWLLLSREVLPRLGPAVAGSRAAMWAAGLVLLGAWMPFNNGLRPEGQIATGALITYVLIERAVTSGRLTPAALAITTAAFTLGIQPTGLIAVAALLAGGRPILRIVIRRRRLDGTWPLIAPLLAAGTVILAVVFADQTIATVLEATRIRTAIGPSQEWWTEKLRYYYLILPTTDGAISRRVAFVFTAMCLFPSLFMMLRRKHIAGVARGPAWRLMGIIFATMFFLMFTPTKWTHHFGLFAAVGGAMAALATVLVSPTVLRSARNRMAFLSLVLFVLAFCFASTNGWWYVSNFGAPFNNSVPKVGGVQISAIFFALSAIAALWAFWLHLTRRTESRVVDRLTAAPIPVAAGFMVVVMMASMAIGVVRQYPTYSNGWANIRAFAGGCGLADDVLVEPDSNAGFLTPLPGAYGPLGPLGGEDPQGFSPDGVPDRIIAEAIRLNNPQPGTDYDWNRPIKLDEPGINGSTVPLPYGLDPKRVPVAGTYSTEAQQESRLSSAWYELPARDETERAAHPLVVITAAGTITGESVANGLTTGQTVDLEYATRGPDGTLVPAGRVTPYDVGPTPSWRNLRYPRSEIPDDAVAVRVVAEDLSLSQGDWIAVTPPRVPELQSVQEYVGSDQPVLMDWAVGLAFPCQQPMLHANGVTEVPKFRISPDYYAKLQSTDTWQDGINGGLLGITDLLLRASVMSTYLSQDWGQDWGSLRKFDTVVEATPAELDFGSQTHSGLYSPGPLRIRP
notes: arabinosyltransferase EmbB of Mycobacterium smegmatis, locus MSMEG_6389; 69.6% identical to Mtb EmbB (Rv_3795); Seen as a homodimer by cryo-EM, with one AcpM on each protomer (EmbB2-AcpM2); also called Msm EmbB; EmbB protomer
**Q.** With B1 as the molecule, how does the “stoichiometry N” value [3] read?
**A.** The value was 2.
